The record followed here is patent publication US9579315B2, “Methods of treating obstructive lung diseases using bitter tastants” (UNIVERSITY OF MARYLAND, BALTIMORE, priority 2010, dated 2017).

Where two headings read alike, the source gives them in different places.

Assay [1] deals with human airway smooth muscle cells. Briefly: [Ca2+]i increase in cultured primary human airway smooth muscle cells (Fluo-4 AM). Format: cell-based. Conditions: for effect on saccharin-elicited [Ca2+]i increase: absence of extracellular calcium, FIG. 1d; for [Ca2+]i response in human ASM cells: 1.0 mM tastant, FIG. 1c. The protocol:
(§1) Dose response curves for [Ca^2+]i and ex vivo tracheal ring studies were analyzed by iterative non-linear (sigmoidal) least squares fitting. Results from all studies were compared using paired or unpaired two-way t-tests (depending on study design), with P<0.05 considered significant. When multiple comparisons were sought, an ANOVA with post-hoc t-tests was utilized with a correction for multiple comparisons. Data are presented as mean±standard error.

For assay [2], the system named is isolated human ASM cells. Briefly: Magnetic twisting cytometry, stiffness of isolated human ASM cells. Format: cell-based. Particulars: for effect on saccharin-promoted relaxation of isolated ASM: 1 mM saccharin, U73122 1 μM, H89 100 nM, IbTx and ChTx 100 nM (FIG. 7b); for change in single-cell stiffness from baseline: isolated human ASM cells, FIG. 7a. The protocol: Dynamic changes in baseline cell stiffness were measured as an indicator of contraction and relaxation of isolated human ASM cells using magnetic twisting cytometry as described in detail previously^15. In brief, Arg-Gly-Asp coated ferromagnetic microbeads bound to adherent human ASM cells were magnetized horizontally and then twisted in a vertically aligned homogenous magnetic field that was varying sinusoidally in time. Sinusoidal twisting magnetic field caused both a rotation and a pivoting displacement of the bead: such forced bead motions are, in turn, impeded by internal stresses developed by the cell. Lateral bead displacements in response to the resulting oscillatory torque were detected with a spatial resolution of ˜5 nm, and the ratio of specific torque to bead displacements was computed and expressed as the cell stiffness in units of Pascal/nm (Pa/nm). For each individual ASM cell, baseline stiffness was measured for the first 60 sec, and after drug addition stiffness was measured continuously for the next 540 sec. […] For each cell, stiffness was normalized to its baseline stiffness prior to the agonist stimulation.

Assay [3] deals with ASM cells. Briefly: Membrane potential of ASM cells (membrane potential-sensitive fluorescent dye). Particulars: for change of membrane potential: 60 mM KCl, 1.0 μM histamine, 1 mM saccharin or chloroquine. Format: cell-based, human.
Description: Primary human ASM cells were obtained from a commercial source (Clonetics) and maintained as described^31, with experiments performed using cells at passages 3-8. […] The effects of bitter tastants on membrane potential of whole ASM cells was measured using a membrane potential-sensitive fluorescent dye (Molecular Devices) as described^19 in a 96 well plate format with 50,000 cells/well. Excitation was at 530 nm and emission acquired at 565 nm. Data were collected in real time for 300 sec and are shown as relative fluorescent units.
The test system of assay [4] is intact mouse tracheas. Put plainly: Ex vivo relaxation of intact mouse tracheal rings (isometric myograph). Conditions: for relaxation of airways contracted by serotonin: 1.0 mM serotonin, FIG. 4b; for EC50: Mus musculus. As for the experimental part: Briefly, tracheal rings fitted between a fixed wire and a transducer-coupled wire were maintained in Krebs buffer at 37° C. with aeration from 95% O2, 5% CO2.
as §1

The test system of assay [5] is BEAS2B cells. Briefly: [Ca2+]i-stimulated dose-response in BEAS2B cells. The format is cell-based, human. The protocol: (§2) In one example, cells are grown in multi-well dishes, loaded with a fluorescence-based calcium indicator dye, and test compounds are added with subsequent monitoring of the change in fluorescence indicative of a change in intracellular calcium [Ca^2+]i release. Test compounds can include, e.g., those with structural similarities to the known bitter taste receptor agonists or antagonists.
(§3) If appropriate, airway cells can also be tested using them within tracheal rings, as described herein and as is well-known in the art.

For assay [6], the system named is H292 cells. Briefly: [Ca2+]i-stimulated dose-response in H292 cells. Format: cell-based, human. Particulars: for EC50: Homo sapiens. As for the experimental part:
as §2, §3

The test system of assay [7] is mouse model of asthma. Briefly: Airway resistance in control and ovalbumin-sensitized mice (flexiVent). Particulars: for decrease in airway resistance: aerosol during methacholine bronchoconstriction, quinine 150 μg, denatonium 200 μg. Format: in vivo. As for the experimental part: Sensitization of 6-week old BALB/c mice was carried out by i.p. injections of […] ovalbumin in 200 μl alum, or alum alone (control) on days 0 and 14. Mice were then challenged with 1.0% aerosolized ovalbumin on days 19, 21 and 24. Twenty-four hours after the last challenge, mice were sedated, intubated and the flexiVent system (SCIREQ) was utilized for ventilation and measurement of airway resistance as previously described^40. Ventilation was at 150 breaths/min with a tidal volume of 240 μl and positive end expiratory pressure of 2.5 cm H2O. After stabilization, mice were challenged with doses of aerosolized methacholine (2.0, 4.0, 8.0 and 16 mg/ml in the nebulizer) until the sustained airway resistance became ˜5-fold greater than baseline. Three minutes after the last […] inhalation, the bitter tastants quinine (150 μg) or denatonium (200 μg), or the β-agonist albuterol (3.0 μg) were administered by aerosol over 10 sec. Resistance measurements (Raw, cm H2O/ml/sec) were taken every 30 sec throughout the experiment.

Assay [8] concerns human ASM cells. Particulars: 0.3 mM saccharin, 1.0 μM histamine.
Assay [9] has as its system human ASM cells. Put plainly: PKA-mediated VASP phosphorylation, Western blot in human ASM cells. Format: cell-based. Particulars: 1.0 mM chloroquine or saccharin, 10 μM forskolin.
Description: Primary human ASM cells were obtained from a commercial source (Clonetics) and maintained as described^31, with experiments performed using cells at passages 3-8. These cells consisted of >95% airway smooth muscle as previously ascertained^31. For detecting changes in [Ca^2+]i attached cells in 96-well plates (80,000 cells/well) were loaded with Fluo-4 AM (BD Biosciences) with probenecid for one hour at 37° C. Receptor agonists were added at the indicated concentrations at 37° C. by an automated pipetting system in triplicate and the 525 nm signals were generated by excitation at 485 nm using a Flex Station II (Molecular Devices). Data was acquired every 1.5 sec for 60 sec. Unless otherwise stated, studies were performed in media containing 1.5 mM calcium. In some studies, ASM were transfected with T2R10 siRNA (Invitrogen) or a scrambled-sequence siRNA control by electroporation (Nucleofector, Lonza) using 4×10^6 cells and 4 μg of siRNA. Twenty-four hours later cells were transferred to the 96-well plates for the [Ca^2+]i assay. […] Samples were acetylated and cAMP measured by a highly sensitive ^125I-cAMP based radioimmunoassay as previously described^32. […] The effects of bitter tastants on membrane potential of whole ASM cells was measured using a membrane potential-sensitive fluorescent dye (Molecular Devices) as described^19 in a 96 well plate format with 50,000 cells/well. […]

With `NCCOB(c1ccccc1)c1ccccc1` [2APB], the “effect on saccharin-elicited [Ca2+]i increase” value (“effect … [Ca2+]i increase” for short) in assay [1] is listed as “partially inhibited”.

Take `O=S(=O)(NCCNC/C=C/c1ccc(Br)cc1)c1cccc2cnccc12` [H89]: the “effect on saccharin-promoted relaxation of isolated ASM” value (from here on “effect … of isolated ASM”) in [2] was “not blocked”.

In the case of `[Cl-].[K+]` [KCl], the “change of membrane potential” value in assay [3] was “membrane depolarization”.

With `COC(=O)[C@@H](N)CCCNC(=N)N[N+](=O)[O-]` [L-NAME], the “effect on bitter tastant-mediated airway relaxation” value in assay [4] is “not altered”.

Consider `C[C@H](NC(=NCC(=O)O)Nc1ccc(C#N)cc1)c1ccccc1` [SC45647], for which the “[Ca2+]i response in human ASM cells” value in [1] is recorded as “no response”.

As to `C/C=C(/C)C(=O)O[C@H]1C(C)=C2[C@H]([C@@H]1OC(=O)CCCCCCC)[C@@](C)(OC(C)=O)C[C@H](OC(=O)CCC)[C@@]1(O)[C@H]2OC(=O)[C@@]1(C)O` [Thapsigargin, thapsigargin], in assay [1] (10 μM thapsigargin pre-incubation 30 min), the “effect on chloroquine and other bitter tastant-mediated [Ca2+]i stimulation” value was “blocked”. In addition, the “effect on chloroquine-mediated relaxation of intact airway rings” value in assay [4] (10 μM thapsigargin pre-incubation, chloroquine 3.0 mM) was “blocked”.

Regarding `COc1ccc2c(c1)CC[C@@H]1[C@@H]2CC[C@]2(C)[C@@H](NCCCCCCN3C(=O)C=CC3=O)CC[C@@H]12` [U73122], in assay [1], the “effect … [Ca2+]i increase” value is reported as “ablated”. Moreover, the “effect … of isolated ASM” value in assay [2] is listed as “eliminated”.

In the case of `COc1cccc2c1cc([N+](=O)[O-])c1c(C(=O)O)cc3c(c12)OCO3` [aristocholic acid], in assay [1], the “[Ca2+]i response in human ASM cells” value is “[Ca^2+]i responses”.

For the compound `CCN(CC)CCCC(C)Nc1ccnc2cc(Cl)ccc12` (stereo not drawn) [chloroquine], the “[Ca2+]i response in human ASM cells” value in [1] was “evoked increased [Ca^2+]i”. For the same compound, the EC50 in assay [1] (Homo sapiens, cultured ASM cells, FIG. 1a, read-out: EC50 for [Ca2+]i release) came out at 70 ± 10 µM; in assay [1] (human airway smooth muscle cells, FIG. 14, read-out: potency, [Ca2+]i dose-response curve), 70 µM; in assay [5] (Homo sapiens, BEAS-2B, read-out: potency, [Ca2+]i-stimulated dose-response curve), 90 µM; in assay [6] (NCI-H292, read-out: potency, [Ca2+]i-stimulated dose-response curve), 74 µM; in [4] (read-out: EC50 for relaxation, contraction stimulated by acetylcholine) it was 93 ± 4.3 µM; in assay [4] (read-out: EC50 for relaxation, contraction stimulated by serotonin) it was 110 ± 32 µM. In addition, the “efficacy, net change in fluorescence units” value in assay [1] (human airway smooth muscle cells, FIG. 14) is 84,317 fluorescence units. Also, the efficacy in assay [5] is listed as 13,995 fluorescence units; in assay [6] (H292 cells), 37,136 fluorescence units. For the same compound, the “change in single-cell stiffness from baseline” value (shortened to “change in single-cell stiffness”) in [2] is recorded as “resulted in ASM relaxation”. In assay [3], the “change of membrane potential” value is “membrane hyperpolarization”. Also, in assay [4], the “relaxation of airways contracted by serotonin” value is “marked relaxation”. Further, in [4] (submaximal dose of chloroquine (200 μM), 1.0 mM acetylcholine), the “relaxation of acetylcholine-mediated constriction” value is about 67%.

Regarding `COc1cc2c(c(OC)c1OC)-c1ccc(OC)c(=O)cc1[C@@H](NC(C)=O)CC2` [colchicine], the “[Ca2+]i response in human ASM cells” value in assay [1] is “relatively low response”.

In the case of `CC[N+](CC)(CC(=O)Nc1c(C)cccc1C)Cc1ccccc1` [denatonium], in [1], the “[Ca2+]i response in human ASM cells” value was “evoked increased [Ca^2+]i”. Besides, the results for the “decrease in airway resistance” value in assay [7] (normal mice) and in assay [7] (ovalbumin-sensitized mice) were 44±6% and 57±4%, respectively.

Take `O=C1OC2(c3ccccc31)c1ccc(O)c(O)c1Oc1c2ccc(O)c1O` [gallein]: in assay [1], the “effect … [Ca2+]i increase” value is “ablated”.

As for `NCCc1c[nH]cn1` [histamine], in [8], the “spatial pattern of [Ca2+]i response” value was “rapid rise in [Ca^2+]i throughout the cell”. The “change in single-cell stiffness” value in assay [2] is “contraction”. In addition, the “change of membrane potential” value in [3] is “membrane depolarization”.

As to `COc1ccc2c(c1)c(CC(=O)O)c(C)n2C(=O)c1ccc(Cl)cc1` [indomethacin], the “effect on bitter tastant-mediated airway relaxation” value in assay [4] is recorded as “not altered”.

In the case of `CC(C)NCC(O)c1ccc(O)c(O)c1` (stereo not drawn) [isoproterenol], the “change in single-cell stiffness” value in [2] was “relaxation”. In assay [4] (maximal concentration of isoproterenol (30 μM)), the “relaxation after chloroquine exposure, washout and acetylcholine re-challenge” value was 29±4.3%. Also, the “maximal relaxation response, loss of active contraction / reduction in active tension” value in assay [4] (tracheas contracted with 1.0 mM acetylcholine) is reported as 30±9.2%.

In the case of `CC(=O)OC(C)C[N+](C)(C)C` (stereo not drawn) [methacholine], the entries for the “concentration of inhaled methacholine required to increase baseline airway resistance by 5-fold” value in assay [7] (non-sensitized mice) and in assay [7] (ovalbumin-sensitized mice) were 16 mg/mL and 8 mg/mL, respectively.

With `C=C[C@H]1C[N@@]2CC[C@H]1C[C@H]2[C@H](O)c1ccnc2ccc(OC)cc12` [quinine], in assay [1], the “[Ca2+]i response in human ASM cells” value is “[Ca^2+]i responses”. In addition, the efficacy in assay [6] (H292 cells) is 133,201 fluorescence units. Besides, the EC50 in assay [6] (NCI-H292, H292 cells, read-out: potency, [Ca2+]i-stimulated dose-response curve) stood at 703 µM. In addition, the “relaxation of airways contracted by serotonin” value in assay [4] is “marked relaxation”. Moreover, the entries for the “decrease in airway resistance” value in [7] (normal mice) and in [7] (ovalbumin-sensitized mice) were 53±2.96% and 50±8%, respectively.

With `O=C1NS(=O)(=O)c2ccccc21` [saccharin], the “PKA-mediated VASP phosphorylation” value in assay [9] is “Neither chloroquine nor saccharin promoted VASP phosphorylation”. Besides, the “[Ca2+]i response in human ASM cells” value in assay [1] is “evoked increased [Ca^2+]i”. In addition, in assay [2], the “change in single-cell stiffness” value is “resulted in ASM relaxation”.

Take `OCc1ccccc1O[C@@H]1O[C@H](CO)[C@@H](O)[C@H](O)[C@H]1O` [salicin]: the “[Ca2+]i response in human ASM cells” value in [1] was “no response”.

Turning to `OC[C@H]1O[C@H](O[C@]2(CCl)O[C@H](CCl)[C@@H](O)[C@@H]2O)[C@H](O)[C@@H](O)[C@H]1Cl` [sucralose], the “[Ca2+]i response in human ASM cells” value in [1] is recorded as “no response”.

Regarding `COC(=O)[C@@H]1[C@H]2C[C@H]3c4[nH]c5ccccc5c4CCN3C[C@@H]2CC[C@@H]1O` [yohimbine], in assay [1], the “[Ca2+]i response in human ASM cells” value is “[Ca^2+]i responses”.

Regarding charybdotoxin, in assay [2], the “effect … of isolated ASM” value is recorded as “ablated”.

Take “iberiotoxin (QFTDVDCSVSKECWSVCKDLFGVDRGKCMGKKCRCYQ; UniProt P24663 1-37, looked up) [specific BKCa channel antagonist]”: the “effect … of isolated ASM” value in assay [2] is listed as “ablated”. The “effect on bitter tastant-promoted membrane hyperpolarization” value in assay [3] (100 nM iberiotoxin preincubation) is recorded as “completely inhibited”. Moreover, in assay [4] (1 mM chloroquine, 100 nM iberiotoxin pretreatment), the “effect on chloroquine-promoted relaxation in the isolated mouse airway” value was “attenuated”.
